Data: patent publication US12673041B2, “4-aminobut-2-enamide derivatives and salt thereof” (TAIHO PHARMACEUTICAL CO., LTD., priority 2019, dated 2026)
pIC50: −log10 of the molar value.

Key:
[1] = target: Gppcp-bound recombinant K-Ras4B G12C mutant protein (amino acids 1-169, C51S/C80L/C118S) (Homo sapiens, UniProt P01116, C118S/C51S/C80L/G12C); test: KRASG12C binding assay (LC-MS compound binding rate); conditions: test compound final concentration 0.5 μM, 25° C., 1 hour
Summary of the method: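 Gppcp-bound K-Ras4B G12C (aa 1-169, C51S/C80L/C118S) at 50 nM in 1×TBS, 0.1 mM TCEP, 0.25 mM MgCl2, 50 μM Gppcp was incubated 1 hour at 25° C with compound at 0.5 μM final. Intact-protein LC-MS gave binding rate as single-adduct signal over total KRAS signal, graded A (≥80%) to E (<20%).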

[2] = target: T1, GMPPNP-bound KRAS G12C protein and cRAF RAS-binding domain (cRAF-RBD) (Homo sapiens, UniProt P01116, G12C); test: Inhibitory activity on interaction between KRAS G12C and cRAF (Alpha technology); assay type: biochemical; conditions: GMPPNP-bound KRAS G12C incubated with compound at 25° C. for 1 hour, then cRAF-RBD, Alpha signal; read-out: IC50
T1 construct: made in house; host or cells: E. coli
Summary of the method: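 GMPPNP-loaded His-KRAS G12C (aa 1-169) preincubated 1 h at 25 °C with compound (pH 7.5 Tris, 1 mM MgCl2, TCEP, Tween 20), then cRAF-RBD (aa 50-132) and Alpha reagents added for 1.5 h at RT. Inhibition scaled between DMSO (0%) and GDP-bound KRAS (100%); IC50 by curve fitting.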

MIA PaCa-2 cells = test: Growth inhibition activity on KRAS-G12C mutant cell line (MIA PaCa-2); assay type: cell-based; conditions: Homo sapiens, 72 h; MIA PaCa-2, 3-day culture, CellTiter-Glo 3D
Procedure: MIA PaCa-2 cells (given by Sumitomo Dainippon Pharma Co., Ltd.), which are a KRAS-G12C mutant human pancreas cancer cell line, were suspended in a 10% fetal bovine serum-containing RPMI1640 medium (manufactured by Fujifilm Wako Pure Chemical Corporation.). The cell suspension was seeded into each well of a 384-well U bottom microplate and cultured in an incubator containing 5% CO2 gas at 37° C. for 1 day. The compounds obtained in the “Preparation of Compounds” section were used as test compounds and were dissolved in DMSO, respectively, and each test compound was diluted with DMSO to give a concentration 500 times the final concentration. The resultant solution of the test compound in DMSO was diluted with the medium used for suspending cells and added to each well of the cell-culture plate to give a DMSO final concentration of 0.2%, followed by culture in an incubator containing 5% CO2 gas at 37° C. for another 3 days. The cell count after 3-day culture in the presence of the test compound was measured using CellTiter-Glo 3D Reagent (manufactured by Promega Corporation). All wells were added with CellTiter-Glo 3D Reagent and mixed for 10 minutes. 30 minutes after mixing, luminescence was measured by a plate reader. The growth inhibition rate was calculated from the following equation, and the concentration of the test compound at which 50% inhibition was achieved (IC50 (nM)) was determined. […] Growth Inhibition Rate (%)=(C−T)/(C)×100 • T: the emission intensity in a well into which a test compound was added. • C: the emission intensity in a well into which a test compound was not added.

| pIC50 [2] | pIC50 (MIA PaCa-2 cells) | SMILES | binding rate [1] |
| --- | --- | --- | --- |
| 7.70 | 7.23 | CO[C@H]1CC[C@H](NC/C=C/C(=O)Nc2ccc(C(=O)c3ccc4c(-c5c(C)cc6c(ncn6C)c5Cl)cccn34)cc2C#N)CC1 [Example 60, (E)-N-(4-(8-(4-chloro-1,6-dimethyl-1H-benzo[d]imidazol-5-yl)indolizine-3-carbonyl)-2-cyanophenyl)-4-(((1r,4r)-4-methoxycyclohexyl)amino)but-2-enamide] | A (A binding rate of 80% or more is rated “A”) |
| 7.59 | 7.07 | CO[C@H]1CC[C@H](NC/C=C/C(=O)Nc2ccc(C(=O)c3ccc4c(-c5cc6nc7n(c6cc5C(F)(F)F)CCC7)cccn34)cc2C#N)CC1 [Example 31, (E)-N-(2-cyano-4-(8-(7-(trifluoromethyl)-2,3-dihydro-1H-benzo[d]pyrrolo[1,2-a]imidazol-6-yl)indolizine-3-carbonyl)phenyl)-4-(((1r,4r)-4-methoxycyclohexyl)amino)but-2-enamide] | A (A binding rate of 80% or more is rated “A”) |
| 7.24 | 7.37 | CO[C@H]1CC[C@H](NC/C=C/C(=O)Nc2ccc(C(=O)c3ccc4c(-c5c(Cl)cc6c(ncn6C)c5Cl)cccn34)cc2C#N)CC1 (single isomer, unassigned) [Example 62, (E)-N-(2-cyano-4-(8-(4,6-dichloro-1-methyl-1H-benzo[d]imidazol-5-yl)indolizine-3-carbonyl)phenyl)-4-(((1r,4r)-4-methoxycyclohexyl)amino)but-2-enamide] | A (A binding rate of 80% or more is rated “A”) |
| 7.20 | 6.25 | Cn1cnc2cc(-c3cccn4c(C(=O)c5cc(F)c(NC(=O)/C=C/CNC(C)(C)C)c(F)c5)cnc34)c(C(F)(F)F)cc21 [Example 67, (E)-4-(tert-butylamino)-N-(2,6-difluoro-4-(8-(1-methyl-6-(trifluoromethyl)-1H-benzo[d]imidazol-5-yl)imidazo[1,2-a]pyridine-3-carbonyl)phenyl)but-2-enamide] | B (a binding rate of 60% or more and less than 80% is rated “B”) |
| 7.30 | 7.08 | CO[C@H]1CC[C@H](NC/C=C/C(=O)Nc2ccc(C(=O)Nc3cccc(-c4cc5nc6n(c5cc4C)CCC6)n3)cc2C#N)CC1 [Example 3, 3-cyano-4-((E)-4-(((1r,4r)-4-methoxycyclohexyl)amino)but-2-enamido)-N-(6-(7-methyl-2,3-dihydro-1H-benzo[d]pyrrolo[1,2-a]imidazol-6-yl)pyridin-2-yl)benzamide] | B (a binding rate of 60% or more and less than 80% is rated “B”) |
| 7.51 | 7.12 | Cn1cnc2cc(-c3cccn4c(C(=O)c5cc(F)c(NC(=O)/C=C/CNC(C)(C)C)c(F)c5)ccc34)c(C(F)(F)F)cc21 [Example 49, (2E)-4-(tert-Butylamino)-N-(2,6-difluoro-4-{8-[1-methyl-6-(trifluoromethyl)-1H-1,3-benzodiazol-5-yl]indolizine-3-carbonyl}phenyl)but-2-enamide] | A (A binding rate of 80% or more is rated “A”) |
| 7.51 | 7.04 | CO[C@H]1CC[C@H](NC/C=C/C(=O)Nc2ccc(C(=O)Nc3cccc(-c4cc5nc6n(c5cc4C(F)(F)F)CCC6)n3)cc2C#N)CC1 [Example 34, 3-cyano-4-((E)-4-(((1r,4r)-4-methoxycyclohexyl)amino)but-2-enamido)-N-(6-(7-(trifluoromethyl)-2,3-dihydro-1H-benzo[d]pyrrolo[1,2-a]imidazol-6-yl)pyridin-2-yl)benzamide] | A (A binding rate of 80% or more is rated “A”) |
| 7.02 | 6.77 | Cn1cnc2cc(-c3cccn4c(C(=O)c5ccc(NC(=O)/C=C/CNC(C)(C)C)c(F)c5)ccc34)c(C(F)(F)F)cc21 [Example 51, (2E)-4-(tert-Butylamino)-N-(2-fluoro-4-{8-[1-methyl-6-(trifluoromethyl)-1H-1,3-benzodiazol-5-yl]indolizine-3-carbonyl}phenyl)but-2-enamide] | B (a binding rate of 60% or more and less than 80% is rated “B”) |
| 7.47 | 6.70 | Cc1cc2c(cc1-c1cccn3c(C(=O)c4cc(F)c(NC(=O)/C=C/CNC(C)(C)C)c(F)c4)ccc13)ncn2C [Example 72, (E)-4-(tert-butylamino)-N-(4-(8-(1,6-dimethyl-1H-benzo[d]imidazol-5-yl)indolizine-3-carbonyl)-2,6-difluorophenyl)but-2-enamide] | A (A binding rate of 80% or more is rated “A”) |
| 7.54 | 7.10 | Cc1cc2c(cc1-c1cccn3c(C(=O)c4ccc(NC(=O)/C=C/CNC(C)(C)C)c(C#N)c4)ccc13)ncn2C [Example 5, (E)-4-(tert-butylamino)-N-(2-cyano-4-(8-(1,6-dimethyl-1H-benzo[d]imidazol-5-yl)indolizine-3-carbonyl)phenyl)but-2-enamide] | A (A binding rate of 80% or more is rated “A”) |
| 7.24 | 6.62 | CO[C@H]1CC[C@H](NC/C=C/C(=O)Nc2c(F)cc(C(=O)c3cnc4c(-c5cc6ncn(C)c6cc5C(F)(F)F)cccn34)cc2F)CC1 [Example 68, (E)-N-(2,6-difluoro-4-(8-(1-methyl-6-(trifluoromethyl)-1H-benzo[d]imidazol-5-yl)imidazo[1,2-a]pyridine-3-carbonyl)phenyl)-4-(((1r,4r)-4-methoxycyclohexyl)amino)but-2-enamide] | B (a binding rate of 60% or more and less than 80% is rated “B”) |
| 6.68 |  | CO[C@H]1CC[C@H](NC/C=C/C(=O)Nc2ccc(C(=O)c3ccc4c(-c5c(Cl)cc6c(ncn6C)c5Cl)cccn34)cc2C#N)CC1 (single isomer, unassigned) [Example 63, (E)-N-(2-cyano-4-(8-(4,6-dichloro-1-methyl-1H-benzo[d]imidazol-5-yl)indolizine-3-carbonyl)phenyl)-4-(((1r,4r)-4-methoxycyclohexyl)amino)but-2-enamide] | A (A binding rate of 80% or more is rated “A”) |
| 6.85 |  | COCc1nc2cc(-c3cccc(NC(=O)c4ccc(NC(=O)/C=C/CNC5C[C@H]6CC[C@@H](C5)O6)c(C#N)c4)c3)c(C(F)(F)F)cc2n1C (stereo partly drawn) [Example 22, 4-((E)-4-(((1R,5S)-8-oxabicyclo[3.2.1]octan-3-yl)amino)but-2-enamido)-3-cyano-N-(3-(2-(methoxymethyl)-1-methyl-6-(trifluoromethyl)-1H-benzo[d]imidazol-5-yl)phenyl)benzamide] | A (A binding rate of 80% or more is rated “A”) |
| 6.66 |  | CO[C@H](C)c1nc2cc(-c3cccc(NC(=O)c4ccc(NC(=O)/C=C/CN[C@H]5CC[C@H](OC)CC5)c(C#N)c4)c3)c(C(F)(F)F)cc2n1C [Example 23, 3-cyano-4-((E)-4-(((1r,4r)-4-methoxycyclohexyl)amino)but-2-enamido)-N-(3-(2-((R)-1-methoxyethyl)-1-methyl-6-(trifluoromethyl)-1H-benzo[d]imidazol-5-yl)phenyl)benzamide] | A (A binding rate of 80% or more is rated “A”) |
| 5.92 |  | Cc1cc(C(=O)c2ccc3c(-c4cc5ncn(C)c5cc4C(F)(F)F)cccn23)cc(C#N)c1NC(=O)/C=C/CNC(C)(C)C [Example 50, (2E)-4-(tert-Butylamino)-N-(2-cyano-6-methyl-4-{8-[1-methyl-6-(trifluoromethyl)-1H-1,3-benzodiazol-5-yl]indolizine-3-carbonyl}phenyl)but-2-enamide] | E (a binding rate of less than 20% is rated “E”) |
| 6.66 |  | COCc1nc2cc(-c3cccc(NC(=O)c4ccc(NC(=O)/C=C/CN[C@H]5CC[C@H](OC)CC5)c(C#N)c4)c3)c(C(F)(F)F)cc2n1C [Example 21, 3-cyano-4-((E)-4-(((1r,4r)-4-methoxycyclohexyl)amino)but-2-enamido)-N-(3-(2-(methoxymethyl)-1-methyl-6-(trifluoromethyl)-1H-benzo[d]imidazol-5-yl)phenyl)benzamide] | A (A binding rate of 80% or more is rated “A”) |
